Source: patent US4272437A, “Antibacterial agents, and 4-thio azetidinone intermediates” (priority 1979, dated 1981)
In brackets after ≈: the same amount, converted by molar mass. Where two headings read alike, the source gives them in different places.

Legend:
Str. pyogenes A-9604 = test: MIC, tube dilution, Streptococcus pyogenes A9604; format: cell-based; conditions: Streptococcus pyogenes, A9604, Str. pyogenes A9604; overnight 37° C., Nutrient Broth; read-out: Minimum Inhibitory Concentration (M.I.C.)
Description: (§1) Representative compounds of the present invention were subjected to in vitro antibiotic screening against a variety of microorganisms.

Ent. cloacae A-9656 = test: MIC, tube dilution, Enterobacter cloacae A9656; format: cell-based; conditions: overnight 37° C., read-out: Minimum Inhibitory Concentration (M.I.C.)
Description: as §1

[1] = stability in aqueous solution followed by UV; format: physicochemical; design: unit not given here; conditions: for ε at λmax 255 in aqueous solution (stability) / ε at λmax 307 in aqueous solution (stability) / ε at λmax 254 in aqueous solution (stability): UV
Experimental: To a solution of penem 3 (2.4 g, 6.89 mmoles) in tetrahydrofuran-ether-water mixture (1:1:1, 165 ml) was added 30% palladium on diatomaceous earth (4.8 g). The reaction mixture was hydrogenated under 45 p.s.i. at 23° C. for 2.5 h and filtered over celite pad. The filtrate and washings were combined, washed twice with ether, centrifugated and filtered several times to give a clear solution which was lyophilized; 0.622 g, 45%. The crystallization of the compound was induced by the addition of water (0.8 ml); the suspension was centrifuged and the water was removed leaving an orange solid. This solid was washed twice with water and a slightly yellow solid was obtained after drying: […], 19.8%. UV λmax^H.sbsp.2^O : 307 (ε=4318) and 257 (ε=2650). Some crude starting material (1.2 g, 50%) was recovered. The compound (50 mg) can also be purified by column chromatography [Sephadex G10, column size: 1.6×100 cm, flow rate: 10 ml/h, eluent: distilled water, fraction volume: 1.5 ml, detector: refractive index]. UV λmax^H.sbsp.2^O 307 (ε=3597) and 255 (ε=2424).
The stability of the compound in aqueous solution was checked by:
A sample of compound 4 was kept at 23° C. for 3 days and the UV was taken: UV λmax^H.sbsp.2^O : 307 (ε=3055) and 255 (ε=2008).
To a solution of ester 6 (200 mg, 0.5 mmole) in tetrahydrofuran (10 ml) was added ether (10 ml), water (10 ml) and 30% palladium on diatomaceous earth (200 mg). The reaction mixture was hydrogenated in a Parr apparatus under 35 p.s.i. at 25° C. for 2 h 30 min and filtered over a celite pad. The filtrate was washed twice with ether and the aqueous solution was lyophilized, giving a yellow powder which was purified by column chromatography [Sephadex G-10, bed dimensions: 100×1.6 cm, flow rate: 12 ml/h, eluent: distilled water, fraction volume: 1.5 ml detector: refractive index]. The right fractions were combined and lyophilized to give a white powder (10 mg, 8.8%). UV λmax^H.sbsp.2 O 301 (ε=4930), 258 (ε=3290). IR (KBr) cm^-1 :1770 (c=o of β-lactam) and 1580 [drawing 587] The stability of compound 7 in aqueous solution was followed by UV; after 6 h: 301 (4795) and 258 (3105) and after 72 h: 301 (4565) and 258 (3150). […]

[2] = test system: Klebsiella species A20468; test: MIC, tube dilution, Klebsiella species A20468; format: cell-based; conditions: Klebsiella species (K. pneumoniae) A20468; overnight 37° C.; read-out: Minimum Inhibitory Concentration (M.I.C.)
Description: as §1

Proteus rettgeri A21203 = test: MIC, tube dilution, Proteus rettgeri A21203; format: cell-based; conditions: Providencia rettgeri, A21203, Proteus rettgeri A21203; overnight 37° C.; read-out: Minimum Inhibitory Concentration (M.I.C.)
Description: as §1

[3] = test system: Staph. aureus (Pen-Res) A-9606; test: MIC, tube dilution, Staphylococcus aureus A9606 (Pen-Res); format: cell-based; conditions: Staphylococcus aureus, Staph. aureus A9606 (Pen-Res); overnight 37° C.; read-out: Minimum Inhibitory Concentration (M.I.C.)
Description: as §1

Pr. vulgaris A-9716 = test: MIC, tube dilution, Proteus vulgaris / Proteus mirabilis A9716; format: cell-based, Proteus vulgaris (name changed to Proteus mirabilis); conditions: Proteus vulgaris, A9716, Proteus vulgaris / Proteus mirabilis A9716; overnight 37° C.; read-out: Minimum Inhibitory Concentration (M.I.C.)
Description: as §1

Pr. mirabilis A-9900 = test: MIC, tube dilution, Proteus mirabilis A9900; format: cell-based; conditions: Proteus mirabilis, A9900, Proteus mirabilis A9900; overnight 37° C.; read-out: Minimum Inhibitory Concentration (M.I.C.)
Description: as §1

Str. faecalis A-20688 = test: MIC, tube dilution, Streptococcus faecalis A20688; format: cell-based; conditions: Enterococcus faecalis, A20688, Str. faecalis A20688; overnight 37° C.; read-out: Minimum Inhibitory Concentration (M.I.C.)
Description: as §1

Ps. aeruginosa A-21213 = test: MIC, tube dilution, Pseudomonas aeruginosa A21213; format: cell-based; conditions: overnight 37° C., read-out: Minimum Inhibitory Concentration (M.I.C.)
Description: as §1

E. coli A-20341-1 = test: MIC, tube dilution, Escherichia coli A20341-1; format: cell-based
Description: as §1

Ser. marcescens A-20019 = test: MIC, tube dilution, Serratia marcescens A20019; format: cell-based; conditions: Serratia marcescens, A20019, Serratia marcescens A20019; overnight 37° C.; read-out: Minimum Inhibitory Concentration (M.I.C.)
Description: as §1

[4] = test system: Staph. aureus A-9537 and 50% serum; test: MIC, tube dilution, Staph. aureus A9537 + 50% serum; format: cell-based, Staphylococcus aureus; conditions: Staphylococcus aureus, overnight 37° C., read-out: Minimum Inhibitory Concentration (M.I.C.)
Description: as §1

Staph. aureus A-9537 = test: MIC, tube dilution, Staphylococcus aureus A9537; format: cell-based; conditions: Staphylococcus aureus, A9537, Staph. aureus A9537; overnight 37° C., Nutrient Broth; read-out: Minimum Inhibitory Concentration (M.I.C.)
Description: as §1

Str. pneumoniae A-9585 = test: MIC, tube dilution, Streptococcus pneumoniae A9585; format: cell-based; conditions: Streptococcus pneumoniae, A9585, Str. pneumoniae A9585; overnight 37° C., Nutrient Broth; read-out: Minimum Inhibitory Concentration (M.I.C.)
Description: as §1

Pr. morganii A-15153 = test: MIC, tube dilution, Proteus morganii A15153; format: cell-based; conditions: Morganella morganii, A15153, Proteus morganii A15153; overnight 37° C.; read-out: Minimum Inhibitory Concentration (M.I.C.)
Description: as §1

E. coli A-15119 = test: MIC, tube dilution, Escherichia coli A15119; format: cell-based; conditions: Escherichia coli, A15119, E. coli A15119; overnight 37° C.; read-out: Minimum Inhibitory Concentration (M.I.C.)
Description: as §1

K. pneumoniae A-15130 = test: MIC, tube dilution, Klebsiella pneumoniae A15130; format: cell-based; conditions: Klebsiella pneumoniae, A15130, K. pneumoniae A15130; overnight 37° C.; read-out: Minimum Inhibitory Concentration (M.I.C.)
Description: as §1

Ps. aeruginosa A-9843A = test: MIC, tube dilution, Pseudomonas aeruginosa A9843A; format: cell-based; conditions: Pseudomonas aeruginosa, A9843A, read-out: Minimum Inhibitory Concentration (M.I.C.), Pseudomonas aeruginosa A9843A; overnight 37° C.
Description: as §1

[5] = test system: Staph. aureus (Meth-Res) A-15097; test: MIC, tube dilution, Staphylococcus aureus A15097 (Meth-Res); format: cell-based; conditions: Staphylococcus aureus, Staph. aureus A15097 (Meth-Res); overnight 37° C.; read-out: Minimum Inhibitory Concentration (M.I.C.)
Description: as §1

Ent. cloacae A-9659 = test: MIC, tube dilution, Enterobacter cloacae A9659; format: cell-based; conditions: Enterobacter cloacae, A9659, Enterobacter cloacae A9659; overnight 37° C.; read-out: Minimum Inhibitory Concentration (M.I.C.)
Description: as §1

Proteus vulgaris A9555 = test: MIC, tube dilution, Proteus vulgaris (mirabilis) A9555; format: cell-based; conditions: overnight 37° C., read-out: Minimum Inhibitory Concentration (M.I.C.)
Description: as §1

[6] = Enterobacter cloacae, A9656, Enterobacter cloacae A9656
[7] = sample kept at 23° C. for 3 days, UV in H2 O
[8] = Escherichia coli, A203411, E. coli A20341-1; overnight 37° C.; read-out: Minimum Inhibitory Concentration (M.I.C.)

Row | Compound | MIC (Str. pyogenes A-9604) [µg/mL] | MIC (Ent. cloacae A-9656; [6]) [µg/mL] | MIC [2] [µg/mL] | MIC (Proteus rettgeri A21203) [µg/mL] | MIC [3] [µg/mL] | MIC (Pr. mirabilis A-9900) [µg/mL] | MIC (Str. faecalis A-20688) [µg/mL] | MIC (E. coli A-20341-1; [8]) [µg/mL] | MIC (Ser. marcescens A-20019) [µg/mL] | MIC [4] [µg/mL] | MIC (Staph. aureus A-9537) [µg/mL] | MIC (Str. pneumoniae A-9585) [µg/mL] | MIC (Pr. morganii A-15153) [µg/mL] | MIC (E. coli A-15119) [µg/mL] | MIC (K. pneumoniae A-15130) [µg/mL] | MIC (Ps. aeruginosa A-9843A) [µg/mL] | MIC [5] [µg/mL] | MIC (Ent. cloacae A-9659) [µg/mL] | MIC (Proteus vulgaris A9555) [µg/mL] | MIC (Ps. aeruginosa A-21213; Pseudomonas aeruginosa A21213) [µg/mL] | also measured
1 | NCC1=C(C(=O)O)N2C(=O)CC2S1 (stereo not shown) [Example 16, 2-Aminomethylpenem-3-carboxylic Acid] | 4 (≈ 20 µM) | 8 (≈ 40 µM) | 125 (≈ 624 µM) | 1 (≈ 4.99 µM) | 8 (≈ 40 µM) | 2 (≈ 9.99 µM) | > 125 | 16 (≈ 79.9 µM) | 8 (≈ 40 µM) | 32 | 2 (≈ 9.99 µM) | 1 (≈ 4.99 µM) | 1 (≈ 4.99 µM) | 4 (≈ 20 µM) | 8 (≈ 40 µM) | 1 (≈ 4.99 µM) | 63 (≈ 315 µM) | 8 (≈ 40 µM) |  |  | ε at λmax 255 in aqueous solution (stability) ([1]; 6 h): 2773; ε at λmax 307 in aqueous solution (stability) ([1]; 6 h): 3545; ε at λmax 255 in aqueous solution (stability) ([1]; 21 h): 2411; ε at λmax 307 in aqueous solution (stability) ([1]; 21 h): 3467; ε at λmax 254 in aqueous solution (stability) ([1]; 28 h): 2398; ε at λmax 307 in aqueous solution (stability) ([1]; 28 h): 3337; ε at λmax 254 in aqueous solution (stability) ([1]; 46 h): 2398; ε at λmax 307 in aqueous solution (stability) ([1]; 46 h): 3259; ε at λmax 307 in aqueous solution (stability) ([1]; 70 h): 3076; ε at λmax 307 in aqueous solution (stability) ([1]; 94 h): 2842; ε at λmax 307 in aqueous solution (stability) ([1]; 170 h): 1900; ε at λmax 255 (stability of stored sample) [1, 7]: 2008; ε at λmax 307 (stability of stored sample) [1, 7]: 3055; MIC (Pr. vulgaris A-9716): 2 µg/mL (≈ 9.99 µM); MIC (Ps. aeruginosa A-21213; Pseudomonas aeruginosa, A21213, Pseudomonas aeruginosa A21213): 1 µg/mL (≈ 4.99 µM)
2 | CC1=C(C(=O)O)N2C(=O)[C@H](C(C)(C)O)[C@H]2S1 (relative stereo) [Example 32, trans 6-(2'-Hydroxy-2'-propyl)-2-methylpenem-3-carboxylic Acid] | 8 (≈ 32.9 µM) |  | > 125 | 63 (≈ 259 µM) | 16 (≈ 65.8 µM) | 63 (≈ 259 µM) | > 125 |  | 63 (≈ 259 µM) | 32 | 8 (≈ 32.9 µM) | 0.25 (≈ 1.03 µM) | 125 (≈ 514 µM) | 63 (≈ 259 µM) | 125 (≈ 514 µM) | 125 (≈ 514 µM) | 63 (≈ 259 µM) | 125 (≈ 514 µM) | 125 (≈ 514 µM) | 125 (≈ 514 µM) | MIC (Ent. cloacae A-9656; Enterobacter cloacae A9656): 125 µg/mL (≈ 514 µM); MIC (E. coli A-20341-1; Escherichia coli, A203411; E. coli A20341-1; overnight 37° C.; read-out: Minimum Inhibitory Concentration (M.I.C.)): > 125 µg/mL
3 | CC1=C(C(=O)O)N2C(=O)[C@@H](CO)[C@H]2S1 (relative stereo) [Example 68, trans 6-Hydroxymethyl-2-methylpenem-3-carboxylic Acid] | 16 (≈ 74.3 µM) | 63 (≈ 293 µM) | 125 (≈ 581 µM) | 63 (≈ 293 µM) | 63 (≈ 293 µM) | 63 (≈ 293 µM) | 125 (≈ 581 µM) | 63 (≈ 293 µM) | 63 (≈ 293 µM) | > 63 | 16 (≈ 74.3 µM) | 4 (≈ 18.6 µM) | 125 (≈ 581 µM) | 63 (≈ 293 µM) | 63 (≈ 293 µM) | 125 (≈ 581 µM) | 63 (≈ 293 µM) | 63 (≈ 293 µM) | 63 (≈ 293 µM) | 125 (≈ 581 µM) | 
